We go through 19 compounds from patent US4640922A, “3N-substituted 3,4-dihydropyrimidines as agents for treating disorders of cardiovascular system” (Suntory Limited, priority 1984, dated 1987).

Read-outs that look alike come from different tables or passages of the source.

Assay [1] relates to coronary artery (isolated heart). Description: Coronary vascular dilative effect, isolated perfused guinea pig heart, Langendorff's method (perfusion pressure). The conditions noted are these: for Pharmacological data ED50: 0.1 ml injected into coronary artery, isolated guinea pig heart, 37° C., 6 ml/minute. The protocol: The coronary vascular dilative effect of 3N-substituted 3,4-dihydropryrimidine derivatives was tested.
Heartly guinea pigs (weight 400-500 g) were clubbed dead and their hearts were immediately isolated. The hearts were perfused with Krebs-Henseleit solution bubbled with a mixture of 95% O2 +5% CO2 and maintained at 37° C. at a certain rate of 6 ml/minute according to Langendorff's method [J. Pharmacol. Methods 2, 143 (1979)]. The perfusion pressure was determined by a pressure transducer. Samples were prepared by dissolving 1 mg of a test compound in 1 ml of a mixture of dimethylsulfoxide and physiological saline (1:9) and diluting with physiological saline the solution to the predetermined concentration. 0.1 ml of the diluted solution was administered into the coronary artery via a rubber tube connected to an aorta cannula to obtain ED50 (μg/heart) data as shown in Table 1. The numbers of the compounds in the Table correspond respectively to those of the working examples described above.

Assay [2] has as its system systemic blood pressure. Put plainly: Systemic blood pressure (average pressure) in anesthetized dogs. Type of assay: in vivo, dog. Particulars: Canis lupus familiaris, iv, read-out: Average blood pressure, percentage compared with control. The protocol:
(§1) The pharmacological effects of the compounds of the present invention with respect to the blood flow and blood vessel resistance of vertebral artery and systemic blood pressure (average pressure) in anesthetized dogs. […] The first and second ribs were cut open to expose the left vertebral artery. A probe was attached to the origin of the artery and the blood flow was measured with an electromagnetic rheometer (Model MF-27, product of Nihon Koden K.K.) At the same time, continuous measurement of the following parameters was made: systemic blood pressure (average pressure) at the right femoral artery, the ECG in the second induction period, the heart beat with a tachometer driven by the R wave, and the blood vessel resistance determined by loading a multiplication/division unit (EO-601 G, product of Nihon Koden K.K.) with the average values of blood pressure and blood flow in the vertebral artery. All of these parameters were recorded simultaneously on a polygraph (RM-600, product of Nihon Koden, K.K.) All of the test compounds were injected through a cannula inserted into the femoral […].

For assay [3], the system named is vertebral artery. Put plainly: Blood flow and blood vessel resistance of vertebral artery in anesthetized dogs. The conditions noted are these: Canis lupus familiaris, iv. Type of assay: in vivo, dog. As to the method:
as §1

Where [4] appears, read: 0.001 mg/kg, % of value before administration, average ± standard error.
The mark [5] stands for this setting: % of value before administration, average ± standard error.
Where [6] appears, read: 0.001 mg/kg, % of value before administration, average ± standard error, read-out: Vertebral artery blood flow, percentage compared with control.
[7] abbreviates: 0.001 mg/kg, % of value before administration, average ± standard error, read-out: Vertebral artery vessel resistance, percentage compared with control.
Setting [8] is: % of value before administration, average ± standard error, read-out: Vertebral artery blood flow, percentage compared with control.
[9] abbreviates: % of value before administration, average ± standard error, read-out: Vertebral artery vessel resistance, percentage compared with control.
Where [10] appears, read: 0.1 mg/kg, % of value before administration, average ± standard error.
The mark [11] stands for this setting: 0.1 mg/kg, % of value before administration, average ± standard error, read-out: Vertebral artery blood flow, percentage compared with control.
Setting [12] is: 0.1 mg/kg, % of value before administration, average ± standard error, read-out: Vertebral artery vessel resistance, percentage compared with control.
Where [13] appears, read: read-out: Vertebral artery blood flow, percentage compared with control.
[14] abbreviates: read-out: Vertebral artery vessel resistance, percentage compared with control.

For the compound `CCOC(=O)C1=C(Cl)N=C(C)N(C(=O)OCC)C1c1ccc(SC)cc1` (centres unmarked) [Compound 18], the “Pharmacological data ED50” value in assay [1] came out at 0.37 μg/heart.

Turning to `CCOC(=O)C1=C(Cl)N=C(C)N(C(=O)OC)C1c1cccc([N+](=O)[O-])c1` (centres unmarked) [Compound 2, 6-Chloro-5-ethoxycarbonyl-3-N-methoxycarbonyl-2-methyl-4-(3'-nitrophenyl)-3,4-dihydropyrimidine], the “Pharmacological data ED50” value in assay [1] worked out at 0.98 μg/heart.

As to `COC(=O)C1=C(C)NC(C)=C(C(=O)OCCN(C)Cc2ccccc2)C1c1cccc([N+](=O)[O-])c1` (centres unmarked) [Nicardipine, reference compound], the response vs control in vivo at 0.001 mg/kg in assay [2] (setting [4]) was 90 ± 1%; in assay [3] (setting [6]), 123 ± 7%; in assay [3] (setting [7]), 79 ± 4%. The response vs control in vivo at 0.003 mg/kg came out at 87 ± 2% in assay [2] (setting [5]), 147 ± 15% in assay [3] (setting [8]) and 67 ± 7% in assay [3] (setting [9]). The response vs control in vivo at 0.01 mg/kg in assay [2] (setting [5]) is 80 ± 2%; in assay [3] (setting [8]) it was 183 ± 13%; in assay [3] (setting [9]), 49 ± 3%.

As for `COC(=O)C1=C(Cl)N=C(C)N(C(=O)OC)C1c1cccc([N+](=O)[O-])c1` (centres unmarked) [Compound 15], the “Pharmacological data ED50” value in assay [1] worked out at 2.8 μg/heart.

Regarding `CCOC(=O)C1=C(Cl)N=C(C)N(C(=O)OCC)C1c1ccccc1[N+](=O)[O-]` (centres unmarked) [Compound 4], the values for the response vs control in vivo at 0.001 mg/kg in assay [2] (setting [4]), in assay [3] (setting [6]) and in assay [3] (setting [7]) were 95 ± 1%, 107 ± 4% and 91 ± 5%, respectively. Moreover, the response vs control in vivo at 0.003 mg/kg in assay [2] (setting [5]) was found to be 93 ± 1%; in assay [3] (setting [8]), 113 ± 6%; in assay [3] (setting [9]), 86 ± 7%. In addition, the response vs control in vivo at 0.01 mg/kg in assay [2] (setting [5]) was 91 ± 2%; in assay [3] (setting [8]) it was 143 ± 12%; in assay [3] (setting [9]) it was 66 ± 4%. For the same compound, the response vs control in vivo at 0.03 mg/kg in assay [2] (setting [5]) is 88 ± 1%; in assay [3] (setting [8]), 147 ± 16%; in assay [3] (setting [9]), 61 ± 5%. For the same compound, the response vs control in vivo at 0.1 mg/kg in assay [2] (setting [10]) is 84 ± 2%; in assay [3] (setting [11]), 182 ± 16%; in assay [3] (setting [12]), 51 ± 3%. The “Pharmacological data ED50” value in assay [1] is 0.25 μg/heart.

For `CCOC(=O)N1C(C)=NC(Cl)=C(C(=O)OC)C1c1ccccc1[N+](=O)[O-]` (centres unmarked) [Compound 9], the “Pharmacological data ED50” value in assay [1] is listed as 0.78 μg/heart.

For `CCOC(=O)C1=C(C)N=C(C)N(C(=O)OC)C1c1cccc([N+](=O)[O-])c1` (centres unmarked) [Compound 3, 2,6-Dimethyl-5-ethoxycarbonyl-3-N-methoxycarbonyl-4-(3'-nitrophenyl)-3,4-dihydropyrimidine], the “Pharmacological data ED50” value in assay [1] was 1.45 μg/heart.

`COC(=O)C1=C(C)N=C(C)N(C(=O)OC)C1c1ccccc1[N+](=O)[O-]` (centres unmarked) [Compound 10]: the response vs control in vivo at 0.001 mg/kg in assay [2] (setting [4]) came to 92%; in assay [3] (setting [6]), 102%; in assay [3] (setting [7]) it was 99%. Besides, the response vs control in vivo at 0.003 mg/kg was 91% in assay [2] (setting [5]), 108% in assay [3] (setting [8]) and 94% in assay [3] (setting [9]). Further, the response vs control in vivo at 0.01 mg/kg in assay [2] (setting [5]) was found to be 86%; in assay [3] (setting [8]), 113%; in assay [3] (setting [9]), 86%. Also, the response vs control in vivo at 0.03 mg/kg in assay [2] (setting [5]) was 78%; in assay [3] (setting [8]), 140%; in assay [3] (setting [9]) it was 67%. The response vs control in vivo at 0.1 mg/kg in assay [2] (setting [10]) amounted to 63%; in assay [3] (setting [11]), 146%; in assay [3] (setting [12]) it was 58%. Besides, the “Pharmacological data ED50” value in assay [1] was determined as 0.75 μg/heart.

With `CCOC(=O)N1C(C)=NC(Cl)=C(C(=O)OC)C1c1cccc([N+](=O)[O-])c1` (centres unmarked) [Compound 16], the “Pharmacological data ED50” value in assay [1] stood at 10.0 μg/heart.

For `CCOC(=O)C1=C(C)N=C(C)N(C(=O)OC)C1c1ccc(SC)cc1` (centres unmarked) [Compound 21], the “Pharmacological data ED50” value in assay [1] is on record as 1.0 μg/heart.

Take `COC(=O)C1=C(Cl)N=C(C)N(C(=O)OC)C1c1ccccc1[N+](=O)[O-]` (centres unmarked) [Compound 11]: the “Pharmacological data ED50” value in assay [1] is 1.65 μg/heart.

`CCOC(=O)C1=C(Cl)N=C(C)N(C(=O)OC)C1c1ccccc1[N+](=O)[O-]` (centres unmarked) [Compound 6]: the “Pharmacological data ED50” value in assay [1] amounted to 0.70 μg/heart.

Turning to `CCOC(=O)N1C(C)=NC(C)=C(C(=O)OC)C1c1cccc([N+](=O)[O-])c1` (centres unmarked) [Compound 14], the “Pharmacological data ED50” value in assay [1] was determined as 1.1 μg/heart.

With `COc1ccc(Cc2nccc3cc(OC)c(OC)cc23)cc1OC` [Papaverine, reference compound], in assay [2], the response vs control in vivo at 0.1 mg/kg is 93 ± 1%, the response vs control in vivo at 0.3 mg/kg was determined as 83 ± 3% and the response vs control in vivo at 1 mg/kg amounted to 73 ± 4%. For the same compound, in assay [3] (setting [13]), the response vs control in vivo at 0.1 mg/kg came to 123 ± 4%, the response vs control in vivo at 0.3 mg/kg is 151 ± 8% and the response vs control in vivo at 1 mg/kg was determined as 184 ± 14%. Besides, in assay [3] (setting [14]), the response vs control in vivo at 0.1 mg/kg is 78 ± 3%, the response vs control in vivo at 0.3 mg/kg is 58 ± 3% and the response vs control in vivo at 1 mg/kg was 43 ± 3%.

Take `COC(=O)C1=C(C)NC(C)=C(C(=O)OC)C1c1ccccc1[N+](=O)[O-]` [Nifedipine, reference compound]: the response vs control in vivo at 0.0001 mg/kg in assay [2] was determined as 94%; in assay [3] (setting [13]), 114%; in assay [3] (0.0001 mg/kg, % of value before administration, read-out: Vertebral artery vessel resistance, percentage compared with control) it was 79%. In addition, the response vs control in vivo at 0.0003 mg/kg in assay [2] stood at 94%; in assay [3] (setting [13]), 129%; in assay [3] (0.0003 mg/kg, % of value before administration, average ± standard error, read-out: Vertebral artery vessel resistance, percentage compared with control), 67%. For the same compound, the values for the response vs control in vivo at 0.001 mg/kg in assay [2], in assay [3] (setting [13]) and in assay [3] (setting [7]) were 87%, 154% and 57%, respectively.

For `CCOC(=O)C1=C(Cl)N=C(C)N(C(=O)OC)C1c1ccc(SC)cc1` (centres unmarked) [Compound 20], the “Pharmacological data ED50” value in assay [1] amounted to 0.22 μg/heart.

Consider `CCOC(=O)N1C(C)=NC(C)=C(C(=O)OC)C1c1ccccc1[N+](=O)[O-]` (centres unmarked) [Compound 7], for which the “Pharmacological data ED50” value in assay [1] came out at 0.40 μg/heart.

With `CCOC(=O)C1=C(C)N=C(C)N(C(=O)OC)C1c1ccccc1[N+](=O)[O-]` (centres unmarked) [Compound 5], the “Pharmacological data ED50” value in assay [1] was found to be 0.066 μg/heart. Also, in assay [1] (Langendorff's method, guinea pig heart), the “coronary vascular dilative effects (in words)” value is “extremely strong coronary vascular dilative effects”.

For the compound `CCOC(=O)C1=C(C)N=C(C)N(C(=O)OCC)C1c1ccc(SC)cc1` (centres unmarked) [Compound 19], the “Pharmacological data ED50” value in assay [1] was found to be 0.58 μg/heart.
